The source of these data is patent publication EP4813993A1, “COMPOUND, PREPARATION METHOD THEREFOR, AND USE THEREOF” (Sichuan Kelun Pharmaceutical Research Institute Co., Ltd., priority 2023, dated 2025).

Data set [1] is described as follows: Pharmacokinetic study in SD rats. The conditions noted are these: for AUC(0-inf) / half-life / Cmax / Tmax / bioavailability: rat. In kind it is in vivo. The method, then:
Experimental Example 2: Pharmacokinetic study of compounds in SD rats
Experimental animals: SD rats, male, 6-8 weeks old.
(§1) Compound preparation: 5% (final preparation volume) of DMSO was added to dissolve the test compound, and then 10% (final preparation volume) of Cremophor EL and 85% Saline were sequentially added.
Experimental design: The test compounds were administered to SD rats as a single dose via intravenous and oral administration, respectively (injection: 2 mg/kg; oral administration: 10 mg/kg; n = 3). The injection group was given free access to food and water. The oral group was fasted overnight (> 12 h) with free access to water, and was fed 4 h after administration. Blood samples were collected from the jugular vein of SD rats at the following time points: 5 min, 15 min, 0.5 h, 1 h, 2 h, 4 h, 8 h, and 24 h after injection administration; 15 min, 0.5 h, 1 h, 2 h, 4 h, 6 h, 8 h, and 24 h after oral administration. The collected blood samples were anticoagulated, placed in an ice bath, and then centrifuged at 6000 g for 5 min to separate plasma. The plasma samples were stored at -70 °C for analysis.
Sample monitoring: The concentrations of the designated compound drugs in plasma were determined by the LC-MS/MS method; the main pharmacokinetic parameters were calculated using the Winnolin 8.3 non-compartmental model.

The test system of data set [2] is acetic acid writhing model. Nature of the data set: Mouse acetic acid writhing model. The format is in vivo, ICR mice. The conditions noted are these: for Number of writhing responses: ICR mice, 60 min before 0.8% acetic acid i.p., 30 min observation, Mean + SD, n = 10. The procedure: Experimental Example 11: Pharmacodynamic effect study of compounds in mouse acetic acid writhing model
Experimental animals: ICR mice, male, 20-24 g.
Compound preparation: 5% (final preparation volume) of DMSO was added to dissolve the test compound, and then 10% (final preparation volume) of Cremophor EL and 85% Saline were sequentially added; an appropriate amount of Etoricoxib was weighed, 5% (final preparation volume) of DMSO was added to dissolve the test compound, and then 5% (final preparation volume) of HS-15 and 90% Saline were sequentially added.
• 1. The mice were randomly grouped based on the body weight for model establishment, with 10 animals per group. A 0.8% (v/v) acetic acid solution was intraperitoneally injected at an injection volume of 10 mL/kg. • 2. Administration and test
Administration was performed 60 min before modeling. After the acetic acid solution was injected, the number of writhing responses in mice was observed. […] The number of writhing responses was observed and recorded during two intervals: 0-15 min and 15-30 min, with a total observation duration of 30 min. Inhibition rate = (number of writhing responses in control group - number of writhing responses in administration group)/number of writhing responses in control group × 100%. The model control group was given normal saline, the positive control group 1 was given etoricoxib at 20 mg/kg, the positive control group 2 was given VX-548 at 50 mg/kg, and the remaining groups were given the compounds of the present disclosure according to the administration doses in the table below.
In general terms: Writhing tests count abdominal constrictions after an irritant is injected.

A further data set relates to formalin pain model. Nature of the data set: Rat formalin pain model. In kind it is in vivo, SD rats. The procedure:
Experimental Example 10: Pharmacodynamic effect study of compounds in rat formalin pain model
Experimental animals: SD rats, male, 180-200 g.
Compound preparation: 5% (final preparation volume) of DMSO was added to dissolve the test compound, and then 10% (final preparation volume) of Cremophor EL and 85% Saline were sequentially added; an appropriate amount of Etoricoxib was weighed, 5% (final preparation volume) of DMSO was added to dissolve the test compound, and then 5% (final preparation volume) of HS-15 and 90% Saline were sequentially added; the tramadol injection was diluted with normal saline to the desired concentration.
Each group consisted of 10 animals, and 50 µL of a 5% formalin solution was injected using a microsyringe into the right plantar region.
2. Administration and test
Based on different pharmacokinetic properties of the drugs, the administration was performed at 0 min, 60 min, and 120 min before modeling. After injection of the formalin, the number of pain responses in the rats was observed. […] Spontaneous pain responses were observed once every 5 min, and the number of pain responses in the rats within 1 min was counted, with a total observation duration of 60 min. Inhibition rate = (number of pain responses in control group - number of pain responses in administration group)/number of pain responses in control group × 100%.
Table 12. Administration information of compounds of the present disclosure in rat formalin model

In the next data set the target is T1, Nav1.8 channels (Homo sapiens, UniProt Q9Y5Y9).
T1 construct: expressed in transfected cells
Nature of the data set: Manual patch-clamp, current of stably overexpressed Nav1.8 channels (resting state voltage program). The format is cell-based. The conditions noted are these: for inhibition at 0.01 µM: concentration of 10 nM. The gist of the method: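 Whole-cell manual patch clamp on cells stably overexpressing Nav1.8, held at -120 mV and stepped to 0 mV for 50 ms every 20 s (resting-state protocol). Compounds were perfused in ascending concentrations, each for 5 min or until stable; block of peak current was calculated at steady state.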

Data set [3] is described as follows: Tissue distribution study (dorsal root ganglia) in ICR mice. The format is in vivo. The conditions noted are these: male, mouse, oral administration 20 mg/kg. The method, then: Experimental Example 4: Tissue distribution study of compounds in ICR mice
(§2) Experimental animals: ICR mice, male, 6-8 weeks old.
as §1
Experimental design: The test compounds were administered to ICR mice as a single dose via oral administration (20 mg/kg; n = 3, 3 time points). Blood samples were collected at 0.25 h, 2 h, and 12 h after oral administration, followed by sacrifice of the animals. Dorsal root ganglia (DRG) were collected, rinsed with ice-cold normal saline to remove residual blood, blotted dry with absorbent paper, and stored at -70 °C for analysis.
Sample test: The concentrations of the compound drugs in dorsal root ganglia were determined by the LC-MS/MS method.

Data set [4] can be described thus: Pharmacokinetic study in ICR mice. In kind it is in vivo. The conditions noted are these: male, mouse, plasma. The method, then: Experimental Example 3: Pharmacokinetic study of compounds in ICR mice
as §2, §1
The injection group was given free access to food and water. The oral group was fasted overnight (> 12 h) with free access to water, and was fed 4 h after administration. Blood samples were collected from the jugular vein of ICR mice at the following time points: 5 min, 15 min, 0.5 h, 1 h, 2 h, 4 h, 8 h, and 24 h after injection administration; 15 min, 0.5 h, 1 h, 2 h, 4 h, 6 h, 8 h, and 24 h after oral administration. The collected blood samples were anticoagulated, placed in an ice bath, and then centrifuged for 5 min to separate plasma. The plasma was stored at -70 °C for analysis.
Sample test: The concentrations of the designated compound drugs in plasma were determined by the LC-MS/MS method; the main pharmacokinetic parameters were calculated using the Winnolin 8.3 non-compartmental model. Pharmacokinetic test results of some compounds of the present disclosure in ICR mice

Where [5] appears, read: in vivo, Oral administration, 10 mg/kg.
The mark [6] stands for this setting: male, plasma, Oral administration, 10 mg/kg.
[7] abbreviates: male, plasma, intravenous, Injection, 2 mg/kg.
Where [8] appears, read: Oral administration (p.o.), 20 mg/kg.

T1 sequence (Q9Y5Y9 whole entry): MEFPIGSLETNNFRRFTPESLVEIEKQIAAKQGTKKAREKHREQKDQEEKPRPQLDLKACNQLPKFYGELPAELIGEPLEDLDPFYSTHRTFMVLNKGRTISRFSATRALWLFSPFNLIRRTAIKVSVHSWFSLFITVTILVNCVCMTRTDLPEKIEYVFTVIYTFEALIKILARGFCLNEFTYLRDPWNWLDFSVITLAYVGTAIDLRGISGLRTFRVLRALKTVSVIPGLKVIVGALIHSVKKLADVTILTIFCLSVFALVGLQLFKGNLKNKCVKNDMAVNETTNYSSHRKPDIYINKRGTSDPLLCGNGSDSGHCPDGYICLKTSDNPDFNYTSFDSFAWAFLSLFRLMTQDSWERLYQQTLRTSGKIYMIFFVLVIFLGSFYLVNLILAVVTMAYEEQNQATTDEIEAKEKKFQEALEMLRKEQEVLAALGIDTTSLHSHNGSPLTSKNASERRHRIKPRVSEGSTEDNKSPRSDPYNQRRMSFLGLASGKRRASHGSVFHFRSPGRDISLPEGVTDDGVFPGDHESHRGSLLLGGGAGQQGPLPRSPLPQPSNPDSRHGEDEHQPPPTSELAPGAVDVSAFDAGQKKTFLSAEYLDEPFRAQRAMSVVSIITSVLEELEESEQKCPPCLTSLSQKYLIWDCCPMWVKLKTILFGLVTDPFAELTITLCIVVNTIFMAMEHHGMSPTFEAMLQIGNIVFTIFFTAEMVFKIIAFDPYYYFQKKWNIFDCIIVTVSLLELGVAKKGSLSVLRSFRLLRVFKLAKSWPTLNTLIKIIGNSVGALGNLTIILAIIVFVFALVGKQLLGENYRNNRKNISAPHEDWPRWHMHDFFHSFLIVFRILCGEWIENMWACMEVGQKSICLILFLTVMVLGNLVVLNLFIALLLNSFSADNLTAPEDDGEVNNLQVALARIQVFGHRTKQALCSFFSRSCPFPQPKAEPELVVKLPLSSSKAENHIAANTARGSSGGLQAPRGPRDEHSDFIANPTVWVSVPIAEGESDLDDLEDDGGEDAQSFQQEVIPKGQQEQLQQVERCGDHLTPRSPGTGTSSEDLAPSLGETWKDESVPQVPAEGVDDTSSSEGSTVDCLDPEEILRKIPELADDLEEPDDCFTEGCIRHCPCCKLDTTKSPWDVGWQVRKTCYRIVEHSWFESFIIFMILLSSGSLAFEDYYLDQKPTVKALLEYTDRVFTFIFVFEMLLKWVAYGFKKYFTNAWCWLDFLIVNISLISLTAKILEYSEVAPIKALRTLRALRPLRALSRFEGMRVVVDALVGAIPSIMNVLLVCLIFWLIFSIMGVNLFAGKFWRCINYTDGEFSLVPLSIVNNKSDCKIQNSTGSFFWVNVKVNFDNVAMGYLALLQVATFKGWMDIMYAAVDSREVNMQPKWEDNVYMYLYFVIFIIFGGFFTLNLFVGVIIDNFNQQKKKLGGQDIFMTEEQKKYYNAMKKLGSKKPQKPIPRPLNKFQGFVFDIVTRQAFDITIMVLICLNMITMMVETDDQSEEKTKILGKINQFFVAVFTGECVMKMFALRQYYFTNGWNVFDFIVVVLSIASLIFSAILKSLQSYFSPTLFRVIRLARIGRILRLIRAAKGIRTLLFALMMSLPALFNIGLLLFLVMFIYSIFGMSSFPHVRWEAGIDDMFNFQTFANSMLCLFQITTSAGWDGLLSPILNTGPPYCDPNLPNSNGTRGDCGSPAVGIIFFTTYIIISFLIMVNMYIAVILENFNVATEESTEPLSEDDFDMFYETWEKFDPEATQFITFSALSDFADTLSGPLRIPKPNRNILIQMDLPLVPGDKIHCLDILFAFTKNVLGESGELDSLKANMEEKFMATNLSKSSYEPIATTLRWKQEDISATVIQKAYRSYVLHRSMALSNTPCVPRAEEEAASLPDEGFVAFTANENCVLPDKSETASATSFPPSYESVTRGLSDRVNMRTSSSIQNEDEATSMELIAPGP

With `COc1c(C2C(C(=O)Nc3ccnc(C(N)=O)c3)OC(C)(C(F)(F)F)C2C)ccc(F)c1F` (racemic) [VX-548(rac)], in data set [1] (in vivo, Injection, 2 mg/kg), the AUC(0-inf) (commonly total exposure, with the tail of the curve extrapolated) was 2650 ng·h/mL and the half-life (in general, the time in which the quantity being followed falls by half) is 2.64 h. In addition, in data set [1] (setting [5]), the AUC(0-inf) came out at 4970 ng·h/mL; the Cmax (commonly the peak of the concentration-time curve) came to 577 ng/mL; the time to peak (Tmax) (in general, the time from dosing to the highest level) was found to be 2 h; the bioavailability (commonly dose-corrected exposure relative to a reference, in per cent) was determined as 37.6%. Also, the half-life in data set [1] (setting [5]) was 3.26 h.

With `Cc1ccc(-c2ncc(Cl)cc2-c2ccc(S(C)(=O)=O)cc2)cn1` [Etoricoxib], in data set [2] (Dose 20 mg/kg), the “Number of writhing responses” value turned out to be 29 ± 11. Besides, the “Number of pain responses 0 min” value in the data set on formalin pain model (SD rats, 30 mg/kg p.o. 60 min before 5% formalin, 0 min, Mean + SD, n = 10) is given as 37.5±9.2. For the same compound, in the data set with formalin pain model (SD rats, 30 mg/kg p.o. 60 min before 5% formalin, 10 min, Mean + SD, n = 10), the “Number of pain responses 10 min” value was found to be 2.0±2.4. Also, the “Number of pain responses 15 min” value in the data set on formalin pain model (SD rats, 30 mg/kg p.o. 60 min before 5% formalin, 15 min, Mean + SD, n = 10) is reported as 10.1±4.0. For the same compound, the “Number of pain responses 30 min” value in the data set with formalin pain model (SD rats, 30 mg/kg p.o. 60 min before 5% formalin, 30 min, Mean + SD, n = 10) is given as 14.3±5.3. Besides, the “Number of pain responses 40 min” value with formalin pain model (SD rats, 30 mg/kg p.o. 60 min before 5% formalin, 40 min, Mean + SD, n = 10) is 10.8±6.2. Also, the “Number of pain responses 50 min” value in the data set with formalin pain model (SD rats, 30 mg/kg p.o. 60 min before 5% formalin, 50 min, Mean + SD, n = 10) worked out at 5.1±8.5. Besides, the “Number of pain responses 60 min” value in the data set with formalin pain model (SD rats, 30 mg/kg p.o. 60 min before 5% formalin, 60 min, Mean + SD, n = 10) is recorded as 3.3±3.7. The “analgesic activity in the first and second phases” value in the data set on formalin pain model (rat formalin pain model, first phase immediately after injection, second phase about 15-20 min after) is “superior analgesic effects in the first and second phases, respectively”.

As to `COc1c(C2CC(C)(C(F)(F)F)SC2C(=O)Nc2ccnc(C(N)=O)c2)ccc(F)c1F` (centres unmarked) [Compound 139, 4-(3-(3,4-difluoro-2-methoxyphenyl)-5-methyl-5-(trifluoromethyl)tetrahydrothiophene-2-carboxamido)picolinamide], the IC50 (commonly the concentration that inhibits the measured activity by half) at Nav1.8 channels came to 0.2 nM. Also, at Nav1.8 channels (read-out: Inhibition rate %), the inhibition (in general, the share of the control response that was lost under treatment) at 0.01 µM worked out at 98.2%. Further, the “t1/2, relative to VX-548” value in data set [1] is 2 times. Further, in data set [1] (setting [6]), the AUC(0-inf) came out at 9310 ng·h/mL, the Cmax came out at 724 ng/mL, the Tmax was determined as 4 h and the bioavailability came to 48.5%. Moreover, in data set [1] (setting [6]), the half-life was 6.29 h. In data set [1] (setting [7]), this compound had an AUC(0-inf) of 3840 ng·h/mL and a half-life of 4.86 h. The “exposure level after oral administration, relative to VX-548” value in data set [1] (oral administration) was 2 times.

In the case of `COc1c([C@@H]2C[C@](C)(C(F)(F)F)S[C@H]2C(=O)Nc2ccnc(C#N)c2)ccc(F)c1F` [Compound 242-A, (2R,3S,5R)-N-(2-cyanopyridin-4-yl)-3-(3,4-difluoro-2-methoxyphenyl)-5-methyl-5-(trifluoromethyl)tetrahydrothiophene-2-carboxamide], at Nav1.8 channels (read-out: Inhibition rate %), the inhibition at 0.01 µM is 97.7%. Further, in data set [3], the concentration at 0.25 h turned out to be 597 ng/g, the concentration at 2 h is 6070 ng/g and the concentration at 12 h amounted to 2220 ng/g. The area under the curve AUC(0-inf) in data set [4] (Oral administration, 10 mg/kg) came to 18600 ng·h/mL. Also, the total exposure AUC(0-inf) in data set [4] (iv, Injection (i.v.), 2 mg/kg) was 3480 ng·h/mL.

In the case of `COc1c([C@@H]2C[C@](C)(C(F)(F)F)S[C@H]2C(=O)Nc2ccc3nnnn3c2)ccc(F)c1F` [Compound 202-A, (2R,3S,5R)-3-(3,4-difluoro-2-methoxyphenyl)-5-methyl-N-(tetrazolo[1,5-a]pyridin-6-yl)-5-(trifluoromethyl)tetrahydrothiophene-2-carboxamide], the inhibition at 0.001 µM on Nav1.8 channels (concentration of 1 nM, read-out: Inhibition rate %) stood at 86.9%. In data set [3], this compound returned a concentration at 0.25 h of 710 ng/g, a concentration at 2 h of 7200 ng/g and a concentration at 12 h of 2720 ng/g. The AUC(0-inf) in data set [4] (Oral administration, 10 mg/kg) was determined as 12500 ng·h/mL. This compound also displayed an AUC(0-inf) in data set [4] (iv, Injection (i.v.), 2 mg/kg) of 2050 ng·h/mL.

`COc1c([C@@H]2C[C@](C)(C(F)(F)F)S[C@H]2C(=O)Nc2cccc(S(N)(=O)=O)c2)ccc(F)c1F` [Compound 223-A, (2R,3S,5R)-3-(3,4-difluoro-2-methoxyphenyl)-5-methyl-N-(3-sulfamoylphenyl)-5-(trifluoromethyl)tetrahydrothiophene-2-carboxamide] showed an IC50 at Nav1.8 channels of 0.02 nM. In addition, in data set [3], the concentration at 0.25 h was 511 ng/g, the concentration at 2 h is 2360 ng/g and the concentration at 12 h was determined as 635 ng/g. This compound had an AUC(0-inf) in data set [4] (setting [8]) of 50600 ng·h/mL. For the same compound, in data set [4] (iv, Injection (i.v.), 2 mg/kg), the AUC(0-inf) worked out at 7200 ng·h/mL.

`COc1c([C@@H]2C[C@](C)(C(F)(F)F)S[C@H]2C(=O)Nc2ccc3c(c2)COB3O)ccc(F)c1F` [Compound 119-A, (2R,3S,5R)-3-(3,4-difluoro-2-methoxyphenyl)-N-(1-hydroxy-1,3-dihydrobenzo[c][1,2]oxaborol-5-yl)-5-methyl-5-(trifluoromethyl)tetrahydrothiophene-2-carboxamide]: the “Number of writhing responses” value in data set [2] (Dose 50 mg/kg) is 18 ± 15. For the same compound, the “inhibition of the writhing effect compared with VX-548” value in data set [2] (mouse acetic acid writhing model) was “better than VX-548”. Also, the IC50 against Nav1.8 channels is 0.49 nM. In data set [3], this compound displayed a concentration at 0.25 h of 875 ng/g, a concentration at 2 h of 2580 ng/g and a concentration at 12 h of 199 ng/g. The area under the curve AUC(0-inf) in data set [4] (setting [8]) is 6740 ng·h/mL. In addition, the AUC(0-inf) in data set [4] (iv, Injection (i.v.), 2 mg/kg) amounted to 842 ng·h/mL.
